“Also recorded” adds a separate entry of the source.
What was measured:
male Sprague-Dawley rats = test: Neuropathic pain model (Chung model, spinal nerve ligation, withdrawal threshold to von Frey filaments); format: in vivo, rat; conditions: for anti-allodynic effect (withdrawal threshold): single intrathecal injection, at least 4 weeks after spinal nerve ligation, up to 20 hr
Source text: Spinal Nerve Ligation: After Animal Care and Use Committee approval, male Sprague-Dawley rats (Harlan, Indianapolis, Ind., USA) weighing 180-200 g undergo anesthesia as previously described by Kim and Chung (Pain 1992, 50, 355-363). Briefly, under general anesthesia with inhalational halothane, the left L5 and L6 spinal nerves are identified through a small laminotomy and tightly ligated. Approximately one week later, an intrathecal catheter is placed under general anesthesia by insertion under direct vision of a polyethylene catheter through a small slit in the dura at the cisterna magnum, and advanced 8.5 cm such that the catheter tip resides in the lower lumbar intrathecal space. Animals are studied approximately one week later. Ligation of the lumbar spinal nerves results in a primarily unilateral increase in the sensitivity to light touch on the operated side. Sensitivity is assessed via application of calibrated von Frey filaments. The withdrawal threshold is determined using an up down method as previously described by Chaplan et al. (J. Neurosci. Methods 1994, 53, 55-63).
Experimental Design: Animals receive, at least 4 weeks after spinal nerve ligation surgery, and at least 1 week after intrathecal catheter insertion, single injections of vehicle (β-cyclodextrin) or the drug substance, using a randomized and blinded protocol. Withdrawal thresholds are determined at intervals for up to 20 hr after injection.

adult male rats = test: Postincisional hypersensitivity model of postoperative pain (paw incision, withdrawal threshold to von Frey filaments); format: in vivo, rat; conditions: intrathecal (i.t.) single drug; for anti-hypersensitivity effect (mechanical hypersensitivity), single drug: 24 h after paw incision surgery, 210 min observation
Procedure: Animal preparation: Following Animal Care and Use Committee approval, an intrathecal (i.t.) catheter with tip in the lumbar space is inserted as previously described in adult male rats weighing 250 g (Yaksh and Rudy, Physiol Behav. 1976, 7, 1032-1036). One week following the insertion of the i.t. catheter, paw incision surgery is performed as previously described (Brennan et al., Pain 1996, 64, 493-501). Briefly, animals are anesthetized with halothane, and a 1-cm long incision is made in the plantar aspect of the left hind paw starting 0.5 cm from the edge of the heel toward the toe after sterile preparation with 70% ethanol. The plantaris muscle is elevated and incised longitudinally. The wound is closed with 2 mattress sutures of 5.0 silk. Subsequently, withdrawal threshold to von Frey filaments is determined one day after surgery (Chaplanet al., J. Neurosci. Methods, 1994, 53, 55-63). For all testing but pilot dose ranging studies, investigators are blinded to study drug administration. A cut off value of 22 g is used.
Experimental Design: Twenty-four hours after paw incision surgery, single drugs and their combinations are studied: T-62, morphine and NBQX.
Single drug injection: For single drug administration, a volume containing 5 μL drug is used, followed by 10 μL of saline. The anti-hypersensitivity effects for single drugs at three doses with logarithmic spacing are studied over a 210 min observation period with testing at 30 min interval. Dose response curves are first constructed, and ED40 values for single drugs are then determined at the time of peak effect.
Drug interaction: For the combination of T-62 with morphine and NBQX, two injections are performed since the time of peak effect for morphine and NBQX is 30 min earlier than that of T-62 (T-62 is injected 30 min before drug injections). Paw withdrawal thresholds are determined before surgery, before drug injection, and 30, 60, 90, 120, 150, 180, and 210 min after the second drug injection. In addition, a fixed fractional dose ratio of 1:1 (w:w) is used for the combination of T-62 with morphine and NBQX. The dose response curves are then constructed for the combined drugs, and the ED40 values of the combined drugs are calculated at the time point of peak effect. Subsequently, isobolograms are constructed based on the ED40 values from single and combined drug administration.
Materials: T-62 may be obtained from King Pharmaceuticals (Cary, N.C.). T-62 is dissolved in saline with 20% DMSO. Morphine may be purchased from Astra Pharmaceutical Products, Inc. (Westborough, Mass.). NBQX and the remaining chemicals may be purchased from Sigma Chemical Co. (St. Louis, Mo.). Saline is used as vehicle for morphine and NBQX.
Data analysis: Data are presented as mean ±S.E. Withdrawal threshold data are analyzed by two-way analysis of variance followed by Fisher's LSD test. P<0.05 is considered significant. Isobolograms are statistically analyzed by student T test.

adenosine A1 receptors = target: T1, adenosine A1 receptors (Rattus norvegicus, UniProt P25099); conditions: from Li et al., Pan et al., U.S. Pat. No. 6,248,774 and 6,489,356; cited from earlier work
T1 sequence (P25099 1-326): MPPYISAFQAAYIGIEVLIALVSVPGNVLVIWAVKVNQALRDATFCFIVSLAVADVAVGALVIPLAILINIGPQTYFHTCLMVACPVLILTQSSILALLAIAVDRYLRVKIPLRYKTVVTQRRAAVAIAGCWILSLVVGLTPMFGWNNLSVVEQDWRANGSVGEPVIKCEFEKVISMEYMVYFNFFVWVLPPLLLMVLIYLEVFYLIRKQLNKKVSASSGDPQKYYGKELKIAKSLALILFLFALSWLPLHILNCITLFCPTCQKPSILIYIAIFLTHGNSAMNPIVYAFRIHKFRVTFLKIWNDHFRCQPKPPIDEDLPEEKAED

For `Nc1sc2c(c1C(=O)c1ccc(Cl)cc1)CCCC2` [T-62, (2-amino-4,5,6,7-tetrahydrobenzo[b]thiophen-3-yl)(4-chlorophenyl)methanone], the “anti-allodynic effect (withdrawal threshold)” value (from here on “anti-allodynic effect”) (male Sprague-Dawley rats) is listed as “dose-dependent anti-allodynic effects”, the “anti-hypersensitivity effect (mechanical hypersensitivity), single drug” value (“anti-hypersensitivity effect” below) (adult male rats) is listed as “modest effect; also recorded: reduced mechanical hypersensitivity in a time dependent manner” and the “effect on inflammatory and neuropathic pain” value (adenosine A1 receptors) is listed as “reduce inflammatory and neuropathic pain”.
In the case of `Nc1sc2c(c1C(=O)c1cccc3ccccc13)CCC2` [formula (Ic)], the “relative potency among the three enhancers” value (male Sprague-Dawley rats; Chung model of chronic neuropathic pain, FIG. 8) was “most potent” and the “anti-allodynic effect” value (male Sprague-Dawley rats) was “dose-dependent anti-allodynic effects”.
In the case of `NS(=O)(=O)c1cccc2c1c([N+](=O)[O-])cc1nc(O)c(O)nc12` [NBQX, 2,3-dihydroxy-6-nitro-7-sulfamoylbenzo(f)quinoxaline], the “time of peak effect after injection” value (adult male rats) was 30 min and the “anti-hypersensitivity effect” value (adult male rats) was “reduces the mechanical hypersensitivity in a time and dose dependent manner”.
In the case of `CN1CC[C@]23c4c5ccc(O)c4O[C@H]2[C@@H](O)C=C[C@H]3[C@H]1C5` [Morphine, morphine], the “time of peak effect after injection” value (adult male rats) was 30 min and the “anti-hypersensitivity effect” value (adult male rats) was “reduces mechanical hypersensitivity in a time and dose dependent manner”.
In the case of `Nc1sc2c(c1C(=O)c1ccccc1)CCS2` [formula (Ib)], the “anti-allodynic effect” value (male Sprague-Dawley rats) was “dose-dependent anti-allodynic effects”.

Source: patent publication US20080108603A1, “COMBINATION THERAPY FOR THE TREATMENT OF PAIN” (priority 2006, published 2008)
